Columns and labels:
PUMA expression = assay: Cell-based Puma expression assay (western blot); set-up: species or system human
Procedure: (§1) Biological Example 4: Puma Expression and Caspases Activation Assay
(§2) Protocols for Cell-Based Puma Expression and Caspase Activation Assays
(§3) Cell lines: All human tumor-derived cancer cell lines were purchased from American Type Culture Collection. Human tumor-derived cancer cell lines Panc-1 (expressing KRas G12D mutant), MiaPaca-2 (expressing KRas G12C mutant), A549 (expressing KRas G12S mutant), and A375 (expressing wild type KRas) were grown in complete DMEM-High Glucose medium and NCI-H1975 (expressing wild type KRas), MM.1R (expressing wild type KRas) and IM.9 (expressing wild type KRas) were grown in RPMI1640 medium. Human tumor-derived cancer cell line BT-549 (expressing wild type KRas) was grown in RPMI1640 medium with 11.8U insulin. All mediums were supplemented with penicillin (100 U/mL), streptomycin (100 μg/mL), and 10% heat-inactivated FBS at 37° C. in a humidified incubator with 5% CO2.
(§4) Method: Cells were plated at 300,000 to 800,000 cells/well density in a 6-well plate in the presence of 10% FBS. The next day small molecules to be tested were added to the cells in the final concentration of 3 μM in the presence of 0.3% DMSO for 48 hours incubation at 37° C. For IC50 value determination, serial dilutions of compounds were added to cells under the same conditions. Following 48 hours of incubation cells were lysed with lysis buffer containing 1% Triton X-100, EDTA, and Halt™ Protease & Phosphatase Inhibitor Cocktail (Thermo Scientific). Protein concentration was assessed by BCA protein assay (Thermo Scientific). Increase expression of PUMA and active/cleaved forms of caspase 3, caspase 6 and caspase 9 were detected by western blot.
(§5) Western blot protocol: Equal amounts of protein (15-50 μg) were separated by SDS-PAGE and transferred to nitrocellulose membranes (Invitrogen by Thermo Fisher Scientific). The membrane was stained with Ponceau S Stain (Boston BioProducts) to verify uniform protein loading. Membranes were blocked with 10% milk and expression levels of PUMA was assessed by incubating overnight at 4° C. with the antibody PUMA (D30C10) from Cell Signaling Technology (#12450) and active/cleaved forms of caspase 3, caspase 6 and caspase 9 by incubating overnight at 4° C. with the following antibodies: cleaved caspase-3 (Asp175) (5A1E), cleaved caspase-6 (Asp162) and cleaved caspase-9 (Asp330) (D2D4) (all antibodies from Cell Signaling Technology). Then the membranes were incubated with HRP-conjugated secondary antibody (Jackson Immunoresearch, West Grove, PA). Bands were incubated in Amersham ECL Prime Western Blotting Detection Reagent (GE Healthcare) and visualized using the ChemiDoc MP imaging system (Bio-Rad).

[1] = tested on: BT-20 (expressing wild type KRas); assay: Proliferation Assay (Cell Viability Assay); type: cell-based; conditions: Homo sapiens; BT-20, Breast (TNBC), KRas WT
In short: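 Cells plated at 2000–5000/well overnight, then treated 2–4 days at 37 °C, 5% CO2 with compound at 10 μM single dose or serial dilutions for IC50, in 0.3% DMSO and 10% FBS. Viability read by CellTiter 96 Aqueous One (MTS); % proliferation inhibition calculated from raw data.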

[2] = tested on: HPAF-II (expressing KRas G12D mutant); assay: Proliferation Assay (Cell Viability Assay); type: cell-based; conditions: Homo sapiens, pancreatic
In short: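 Cells (2000–5000/well; CF-PAC1 in IMDM, HPAF-II in EMEM, NCI-H441 and NCI-H1299 in RPMI 1640) were plated overnight, then exposed to compounds at 10 μM or in serial dilutions for IC50 with 0.3% DMSO and 10% FBS for 2–4 days at 37 °C. Viability was read with CellTiter 96 Aqueous One, and percent inhibition was calculated.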

active/cleaved caspase 6 = assay: Cell-based caspase activation assay (western blot); set-up: species or system human
Procedure: as §1, §2, §3, §4, §5

active/cleaved caspase 3 = assay: Cell-based caspase activation assay (western blot); set-up: species or system human
Procedure: as §1, §2, §3, §4, §5

active/cleaved caspase 9 = assay: Cell-based caspase activation assay (western blot); set-up: species or system human
Procedure: as §1, §2, §3, §4, §5

Q: How did the “Increased PUMA expression” value (PUMA expression; A549, after 48 hours) turn out when COc1ccnc(Nc2nc(-c3nccn3C)nn3cc(-c4ccn(C(C)C)n4)c(C)c23)c1 [Compound 58, 6-(1-Isopropyl-1H-pyrazol-3-yl)-N-(4-methoxypyridin-2-yl)-5-methyl-2-(1-methyl-1H-imidazol-2-yl)pyrrolo[2,1-f][1,2,4]triazin-4-amine] was run?
A: yes

Q: What about the “Increased PUMA expression” value (PUMA expression; BT-549, after 48 hours) of the same molecule?
A: yes

Q: What about the “Increased PUMA expression” value (PUMA expression; MiaPaca2, after 48 hours) of the same molecule?
A: yes

Q: And the IC50 [1]?
A: < 150 nM

Q: And the IC50 [2]?
A: < 150 nM

Q: And the “Caspase 6 activation” value (active/cleaved caspase 6; A549, after 48 hours)?
A: yes

Q: And the “Caspase 6 activation” value (active/cleaved caspase 6; BT-549, after 48 hours)?
A: yes

Q: And the “Caspase 6 activation” value (active/cleaved caspase 6; MiaPaca2, after 48 hours)?
A: yes

Q: And the “Caspase 3 activation” value (active/cleaved caspase 3; A549, after 48 hours)?
A: yes

Q: What about the “Caspase 3 activation” value (active/cleaved caspase 3; BT-549, after 48 hours) of the same molecule?
A: yes

Q: What about the “Caspase 3 activation” value (active/cleaved caspase 3; MiaPaca2, after 48 hours) of the same molecule?
A: yes

Q: What about the “Caspase 9 activation” value (active/cleaved caspase 9; A549, after 48 hours) of the same molecule?
A: yes

Q: And the “Caspase 9 activation” value (active/cleaved caspase 9; BT-549, after 48 hours)?
A: yes

Q: And the “Caspase 9 activation” value (active/cleaved caspase 9; MiaPaca2, after 48 hours)?
A: yes
